Data taken from patent publication US12545639B2, “3-substituted phenylamidine compounds, preparation and use thereof” (PI INDUSTRIES LTD., priority 2019, dated 2026).

Key:
Botrytis cinerea = Botrytis cinerea (gray mold) in vitro test, radial growth on potato dextrose agar; type: cell-based; conditions: 168 h, 300 ppm in potato dextrose agar, 22° C., 90% relative humidity, seven days, read-out: control compared to the untreated check (radial growth)
Pyricularia oryzae = experiment: microbe, parasite or virus in culture; type: cell-based; conditions: 168 h, read-out: control compared to the untreated check (radial growth)
Rhizoctonia solani = Rhizoctonia solani (rice sheath blight/potato black scurf) in vitro test, radial growth on potato dextrose agar; type: cell-based; conditions: 168 h, 300 ppm in potato dextrose agar, 25° C., 60% relative humidity, seven days, read-out: control compared to the untreated check (radial growth)
Colletotrichum capsici = Colletotrichum capsici (anthracnose) in vitro test, radial growth on potato dextrose agar; type: cell-based; conditions: Colletotrichum truncatum, 168 h; 300 ppm in potato dextrose agar; 25° C., 60% relative humidity, seven days; read-out: control compared to the untreated check (radial growth)
Phakopsora pachyrhizi = Phakopsora pachyrhizi test in soybean, preventive, in vivo on plants; conditions: in Glycine max, read-out: Efficacy (% control), disease severity compared to the untreated check
Alternaria solani = Alternaria solani (early blight of tomato/potato) in vitro test, radial growth on potato dextrose agar; type: cell-based; conditions: 168 h, 300 ppm in potato dextrose agar, 25° C., 60% relative humidity, seven days, read-out: control compared to the untreated check (radial growth)
[1] = system: Septoria lycopersici/Corynespora cassicola (CORYCA); experiment: Septoria lycopersici/Corynespora cassicola (CORYCA) (leaf spot of tomato) in vitro test, radial growth on potato dextrose agar; type: cell-based; conditions: 168 h, 300 ppm in potato dextrose agar, 25° C., 70% relative humidity, seven days, read-out: control compared to the untreated check (radial growth)

CCN(C)C=Nc1cc(Cl)cc(Cc2ccccc2Br)c1C [Compound 90, N′-(3-(2-bromobenzyl)-5-chloro-2-methylphenyl)-N-ethyl-N-methylformimidamide]
≥ 70%: inhibition of growth at 300 ppm (Botrytis cinerea) | inhibition of growth at 300 ppm (Pyricularia oryzae) | inhibition of growth at 300 ppm (Rhizoctonia solani) | inhibition of growth at 300 ppm (Colletotrichum capsici) | pest or weed control at 500 ppm (Phakopsora pachyrhizi) | inhibition of growth at 300 ppm (Alternaria solani)

CCN(C)C=Nc1cc(F)cc(Cc2cc(F)ccc2Br)c1C [Compound 233, N′-(3-(2-bromo-5-fluorobenzyl)-5-fluoro-2-methylphenyl)-N-ethyl-N-methylformimidamide]
≥ 70%: inhibition of growth at 300 ppm (Botrytis cinerea) | inhibition of growth at 300 ppm (Pyricularia oryzae) | inhibition of growth at 300 ppm (Rhizoctonia solani) | inhibition of growth at 300 ppm (Colletotrichum capsici) | pest or weed control at 500 ppm (Phakopsora pachyrhizi) | inhibition of growth at 300 ppm (Alternaria solani)

CCN(C)C=Nc1cc(Cl)cc(Cc2cccc(F)c2)c1C [Compound 102, N′-(5-chloro-3-(3-fluorobenzyl)-2-methylphenyl)-N-ethyl-N-methylformimidamide]
≥ 70%: inhibition of growth at 300 ppm (Botrytis cinerea) | inhibition of growth at 300 ppm (Pyricularia oryzae) | inhibition of growth at 300 ppm (Rhizoctonia solani) | inhibition of growth at 300 ppm (Colletotrichum capsici) | pest or weed control at 500 ppm (Phakopsora pachyrhizi) | inhibition of growth at 300 ppm (Alternaria solani)

CCN(C)C=Nc1cc(F)cc(N(C)c2cc(Cl)ccc2C)c1C [Compound 98, N′-(3-((5-chloro-2-methylphenyl)(methyl)amino)-5-fluoro-2-methylphenyl)-N-ethyl-N-methylformimidamide]
≥ 70%: inhibition of growth at 300 ppm (Botrytis cinerea) | inhibition of growth at 300 ppm (Pyricularia oryzae) | inhibition of growth at 300 ppm (Rhizoctonia solani) | inhibition of growth at 300 ppm (Colletotrichum capsici) | pest or weed control at 500 ppm (Phakopsora pachyrhizi) | inhibition of growth at 300 ppm (Alternaria solani)

CCc1cccc(Nc2cc(C)cc(N=CN(C)CC)c2Cl)n1 [Compound 226, N′-(2-chloro-3-((6-ethylpyridin-2-yl)amino)-5-methylphenyl)-N-ethyl-N-methylformimidamide]
≥ 70%: inhibition of growth at 300 ppm (Colletotrichum capsici) | inhibition of growth at 300 ppm [1] | inhibition of growth at 300 ppm (Alternaria solani)

CCN(C)C=Nc1cc(Cl)cc(NCc2cccc(Cl)c2)c1C [Compound 183, N′-(5-chloro-3-((3-chlorobenzyl)amino)-2-methylphenyl)-N-ethyl-N-methylformimidamide]
≥ 70%: inhibition of growth at 300 ppm (Botrytis cinerea) | inhibition of growth at 300 ppm (Pyricularia oryzae) | inhibition of growth at 300 ppm (Rhizoctonia solani) | inhibition of growth at 300 ppm (Colletotrichum capsici) | pest or weed control at 500 ppm (Phakopsora pachyrhizi) | inhibition of growth at 300 ppm (Alternaria solani)

CCN(C)C=Nc1cc(C)cc(N(C)c2cccc(F)c2)c1Cl [Compound 40, N′-(2-chloro-3-((3-fluorophenyl)(methyl)amino)-5-methylphenyl)-N-ethyl-N-methylformimidamide]
≥ 70%: inhibition of growth at 300 ppm (Botrytis cinerea) | inhibition of growth at 300 ppm (Pyricularia oryzae) | inhibition of growth at 300 ppm (Colletotrichum capsici) | pest or weed control at 500 ppm (Phakopsora pachyrhizi) | inhibition of growth at 300 ppm (Alternaria solani)

CCN(C)C=Nc1cc(C)cc(Nc2cccc(Cl)c2)c1Cl [Compound 34, N′-(2-chloro-3-((3-chlorophenyl)amino)-5-methylphenyl)-N-ethyl-N-methylformimidamide]
≥ 70%: inhibition of growth at 300 ppm (Botrytis cinerea) | inhibition of growth at 300 ppm (Pyricularia oryzae) | inhibition of growth at 300 ppm (Rhizoctonia solani) | inhibition of growth at 300 ppm (Colletotrichum capsici) | pest or weed control at 500 ppm (Phakopsora pachyrhizi) | inhibition of growth at 300 ppm (Alternaria solani)

CCN(C)C=Nc1cc(F)cc(Cc2ccc(C)cc2)c1C [Compound 171, N-ethyl-N′-(5-fluoro-2-methyl-3-(4-methylbenzyl)phenyl)-N-methylformimidamide]
≥ 70%: inhibition of growth at 300 ppm (Botrytis cinerea) | inhibition of growth at 300 ppm (Pyricularia oryzae) | inhibition of growth at 300 ppm (Rhizoctonia solani) | inhibition of growth at 300 ppm (Colletotrichum capsici) | inhibition of growth at 300 ppm (Alternaria solani)

CCN(C)C=Nc1cc(F)cc(Cc2ccc(Cl)cc2)c1C [Compound 172, N′-(3-(4-chlorobenzyl)-5-fluoro-2-methylphenyl)-N-ethyl-N-methylformimidamide]
≥ 70%: inhibition of growth at 300 ppm (Botrytis cinerea) | inhibition of growth at 300 ppm (Pyricularia oryzae) | inhibition of growth at 300 ppm (Rhizoctonia solani) | inhibition of growth at 300 ppm (Colletotrichum capsici) | inhibition of growth at 300 ppm (Alternaria solani)

CCN(C)C=Nc1cc(C)cc(Cc2ccc(F)c(C)c2)c1Cl [Compound 68, N′-(2-chloro-3-(4-fluoro-3-methylbenzyl)-5-methylphenyl)-N-ethyl-N-methylformimidamide]
≥ 70%: inhibition of growth at 300 ppm (Botrytis cinerea) | inhibition of growth at 300 ppm (Pyricularia oryzae) | inhibition of growth at 300 ppm (Rhizoctonia solani) | inhibition of growth at 300 ppm (Colletotrichum capsici) | pest or weed control at 500 ppm (Phakopsora pachyrhizi) | inhibition of growth at 300 ppm (Alternaria solani)

CCN(C)C=Nc1cc(C)cc(Cc2ccc(F)cc2C)c1Cl [Compound 65, N′-(2-chloro-3-(4-fluoro-2-methylbenzyl)-5-methylphenyl)-N-ethyl-N-methylformimidamide]
≥ 70%: inhibition of growth at 300 ppm (Botrytis cinerea) | inhibition of growth at 300 ppm (Pyricularia oryzae) | inhibition of growth at 300 ppm (Rhizoctonia solani) | inhibition of growth at 300 ppm (Colletotrichum capsici) | pest or weed control at 500 ppm (Phakopsora pachyrhizi) | inhibition of growth at 300 ppm (Alternaria solani)

CCN(C)C=Nc1cc(C)cc(Cc2ccc(Br)cc2)c1Cl [Compound 93, N′-(3-(4-bromobenzyl)-2-chloro-5-methylphenyl)-N-ethyl-N-methylformimidamide]
≥ 70%: inhibition of growth at 300 ppm (Botrytis cinerea) | inhibition of growth at 300 ppm (Pyricularia oryzae) | inhibition of growth at 300 ppm (Rhizoctonia solani) | inhibition of growth at 300 ppm (Colletotrichum capsici) | pest or weed control at 500 ppm (Phakopsora pachyrhizi) | inhibition of growth at 300 ppm (Alternaria solani)

CCN(C)C=Nc1cc(F)cc(N(C)c2cccc(C)c2F)c1C [Compound 152, N-ethyl-N′-(5-fluoro-3-((2-fluoro-3-methylphenyl)(methyl)amino)-2-methylphenyl)-N-methylformimidamide]
≥ 70%: inhibition of growth at 300 ppm (Botrytis cinerea) | inhibition of growth at 300 ppm (Pyricularia oryzae) | inhibition of growth at 300 ppm (Rhizoctonia solani) | inhibition of growth at 300 ppm (Colletotrichum capsici) | pest or weed control at 500 ppm (Phakopsora pachyrhizi) | inhibition of growth at 300 ppm (Alternaria solani)

CCN(C)C=Nc1cc(C)cc(Cc2cc(F)c(OC)c(F)c2)c1Cl [Compound 71, N′-(2-chloro-3-(3,5-difluoro-4-methoxybenzyl)-5-methylphenyl)-N-ethyl-N-methylformimidamide]
≥ 70%: inhibition of growth at 300 ppm (Botrytis cinerea) | inhibition of growth at 300 ppm (Pyricularia oryzae) | inhibition of growth at 300 ppm (Rhizoctonia solani) | inhibition of growth at 300 ppm (Colletotrichum capsici) | pest or weed control at 500 ppm (Phakopsora pachyrhizi) | inhibition of growth at 300 ppm (Alternaria solani)

CCN(C)C=Nc1cc(C)cc(N(C)c2cccc(Cl)c2)c1Cl [Compound 41, N′-(2-chloro-3-((3-chlorophenyl)(methyl)amino)-5-methylphenyl)-N-ethyl-N-methylformimidamide]
≥ 70%: inhibition of growth at 300 ppm (Botrytis cinerea) | inhibition of growth at 300 ppm (Pyricularia oryzae) | inhibition of growth at 300 ppm (Colletotrichum capsici) | pest or weed control at 500 ppm (Phakopsora pachyrhizi) | inhibition of growth at 300 ppm (Alternaria solani)

CCN(C)C=Nc1cc(C)cc(Cc2ccc(OC)cc2)c1Cl [Compound 150, N′-(2-chloro-3-(4-methoxybenzyl)-5-methylphenyl)-N-ethyl-N-methylformimidamide]
≥ 70%: inhibition of growth at 300 ppm (Botrytis cinerea) | inhibition of growth at 300 ppm (Pyricularia oryzae) | inhibition of growth at 300 ppm (Rhizoctonia solani) | inhibition of growth at 300 ppm (Colletotrichum capsici) | pest or weed control at 500 ppm (Phakopsora pachyrhizi) | inhibition of growth at 300 ppm (Alternaria solani)

CCN(C)C=Nc1cc(C)cc(Cc2ccccc2C(F)(F)F)c1Cl [Compound 21, N′-(2-chloro-5-methyl-3-(2-(trifluoromethyl)benzyl)phenyl)-N-ethyl-N-methylformimidamide]
≥ 70%: inhibition of growth at 300 ppm (Botrytis cinerea) | inhibition of growth at 300 ppm (Pyricularia oryzae) | inhibition of growth at 300 ppm (Rhizoctonia solani) | inhibition of growth at 300 ppm (Colletotrichum capsici) | pest or weed control at 500 ppm (Phakopsora pachyrhizi) | inhibition of growth at 300 ppm (Alternaria solani)

CCN(C)C=Nc1cc(C)cc(Cc2ccccc2Br)c1Cl [Compound 45, N′-(3-(2-bromobenzyl)-2-chloro-5-methylphenyl)-N-ethyl-N-methylformimidamide]
≥ 70%: inhibition of growth at 300 ppm (Botrytis cinerea) | inhibition of growth at 300 ppm (Pyricularia oryzae) | inhibition of growth at 300 ppm (Rhizoctonia solani) | inhibition of growth at 300 ppm (Colletotrichum capsici) | pest or weed control at 500 ppm (Phakopsora pachyrhizi) | inhibition of growth at 300 ppm (Alternaria solani)
